Where “and” joins values, the source holds several entries; their conditions need not be identical. Equal values may be shown once.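 Grown in 96-well plates, cells were treated for 48 hours with each compound at five concentrations. Insufficient inhibition: endpoint recorded as highest concentration tested. GI50 = concentration required for 50% inhibition of growth. Definition used: TGI = concentration required for complete inhibition of growth.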
How the values were obtained:
Assay in all cases: growth of human tumour cells (NCI), 48 h
UO-31 renal = test system: UO-31 renal
UACC-257 melanoma = test system: UACC-257 melanoma
MOLT-4 leukemia = test system: MOLT-4 leukemia
NCI-H226 lung = test system: NCI-H226 lung
T-47D breast = test system: T-47D breast
HCT-116 colon = test system: HCT-116 colon
DU-145 prostate = test system: DU-145 prostate
ACHN renal = test system: ACHN renal
HCC-2998 colon = test system: HCC-2998 colon
HT29 colon = test system: HT29 colon

| SMILES | TGI (UO-31 renal) | TGI (UACC-257 melanoma) | TGI (MOLT-4 leukemia) | TGI (NCI-H226 lung) | TGI (T-47D breast) | TGI (HCT-116 colon) | TGI (DU-145 prostate) | TGI (ACHN renal) [µM] | TGI (HCC-2998 colon) | TGI (HT29 colon) | GI50 (HCT-116 colon) | GI50 (UO-31 renal) | GI50 (UACC-257 melanoma) | GI50 (MOLT-4 leukemia) | GI50 (NCI-H226 lung) [µM] | GI50 (T-47D breast) | GI50 (DU-145 prostate) | GI50 (ACHN renal) | GI50 (HCC-2998 colon) | GI50 (HT29 colon) |
| --- | --- | --- | --- | --- | --- | --- | --- | --- | --- | --- | --- | --- | --- | --- | --- | --- | --- | --- | --- | --- |
| O=C(CP(=O)(O)O)NC(CC(=O)OCc1ccccc1)C(=O)OCc1ccccc1 (stereo not drawn) | > 100 µM | > 100 µM | > 100 µM | > 100 µM | > 100 µM | > 100 µM | > 100 µM | > 100 | > 100 µM | > 100 µM | – | – | – | – | – | – | – | – | – | – |
| COc1ccc(-c2cc(=O)c3ccc(C)nc3[nH]2)cc1 | > 100 µM | > 100 µM | > 100 µM | > 100 µM | > 100 µM | > 100 µM | > 100 µM | > 100 | > 100 µM | > 100 µM | > 100 µM | – | – | – | – | – | – | – | – | – |
| Nc1ccc(C2=NN(c3ccccc3)C(c3ccc(Cl)cc3)C2)cc1 (stereo not drawn) | 3.06 µM | 11.2 µM | 6.61 µM | 6.38 µM | 4.48 µM | 3.01 µM | 11.3 µM | 3.57 | 3.29 µM | 4.49 µM | 1.64 µM | 1.54 µM | 3.13 µM | 2.23 µM | 2.13 | 2.06 µM | 3.54 µM | 1.8 µM | 1.86 µM | 1.96 µM |
| O=S(=O)(Nc1ccccc1Cl)c1ccc(-c2cnc(C3CC3)o2)cc1 | > 77.1 µM | 75 µM | > 63.6 µM | > 68.4 µM | > 54.7 µM | > 75.5 µM | > 100 µM | > 100 | 33.3 µM | > 41.2 µM | 0.401 µM | 0.832 µM | 19.2 µM | 0.71 µM | 4.84 | 0.464 µM | 0.94 µM | 0.744 µM | 2.54 µM | 0.331 µM |
| O=C(CC(c1ccccc1)c1c(O)c2ccccc2oc1=O)c1ccccc1 (stereo not drawn) | > 100 µM | > 100 µM | > 100 µM | > 100 µM | > 100 µM | > 100 µM | > 100 µM | > 100 | > 100 µM | > 100 µM | – | – | – | – | – | – | – | – | – | – |
| CCOC(=O)N1CCN(c2nc(Nc3cc(C)[nH]n3)c3ccccc3n2)CC1 | 24.6 µM | 52.6 µM | 42.7 µM | 10.8 µM | 70.7 µM | 21.3 µM | 40 µM | > 100 | 48.7 µM | 21.2 µM | 2.13 µM | 0.854 µM | 16.3 µM | 15.5 µM | 1.58 | 4.83 µM | 3.89 µM | 0.707 µM | 11.7 µM | 2.49 µM |
| CCN(Cc1cccc(F)c1)c1ccc(CO)c(Cl)c1 | 58.7 µM | 0.344 µM | > 74.5 µM | 0.18 µM | 0.662 µM | 5.85 µM | > 100 µM | > 100 | 35.5 µM | > 51.4 µM | 0.0674 µM | 5.09 µM | 0.114 µM | 25.2 µM | 0.0467 | 0.148 µM | 26.9 µM | 29.4 µM | 10.7 µM | 3.42 µM |
| COc1cccc(-c2nc3sccn3c2-c2ccnc(NCCCNS(=O)(=O)c3cccc(F)c3)c2)c1 | 5.37 µM | 9.68 µM | 5.46 µM | 8.38 µM | 4.93 µM | > 100 µM | > 100 µM | 10.6 | > 100 µM | 23.9 µM | 2.83 µM | 1.25 µM | 2.89 µM | 1.84 µM | 2.38 | 1.24 µM | 3.04 µM | 2.22 µM | 5.12 µM | 3.01 µM |
| Clc1nc(Cl)c2ncn(Cc3cccc(Cn4cnc5c(Cl)nc(Cl)nc54)c3)c2n1 | 3.55 µM | 17.2 µM | 13.7 µM | 26.8 µM | 8.43 µM | 6.28 µM | 3.09 µM | 6.21 | 7.11 µM | > 100 µM | 2.45 µM | 1.92 µM | 4.78 µM | 3.48 µM | 4.76 | 3.01 µM | 1.72 µM | 2.53 µM | 2.38 µM | 4.42 µM |
| Cc1nc(SCC(=O)Nc2nc(-c3ccc(Cl)cc3)cs2)n(Nc2ccccc2)c1C | 37.7 µM | 17 µM | 9.94 µM | 18.8 µM | 5.24 µM | 4.62 µM | 18.7 µM | 14.1 | 29.5 µM | 15.4 µM | 1.84 µM | 3.59 µM | 3.07 µM | 2.51 µM | 3.37 | 1.4 µM | 5.64 µM | 3.67 µM | 10.6 µM | 3.78 µM |
| C#Cc1cccc(N2C(=O)CCC2=O)c1 | 31.9 µM | 29.9 µM | 23 µM | 35 µM | 56.8 µM | 23.1 µM | 28.3 µM | 30.6 | 29.5 µM | 34.2 µM | – | – | – | – | – | – | – | – | – | – |
| Cc1cnc(NC(=O)Nc2cc(Br)c(C)cc2OC[C@@H]2CNCCO2)cn1 | > 10 µM and 12 µM | 3.59 µM and 8.37 µM | > 10 µM and 3.9 µM | > 10 µM and 20.8 µM | > 10 µM and 22.3 µM | > 10 µM and 13.3 µM | > 10 µM and 11.5 µM | – | > 10 µM and 5.28 µM | > 10 µM and 10.1 µM | 3.09 µM and 3.35 µM | 0.483 µM and 1.06 µM | 1.59 µM and 2.44 µM | 0.445 µM and 0.368 µM | 5.84 | 2.88 µM and 7.86 µM | 2.08 µM and 0.659 µM | 0.319 µM and 0.225 µM | 0.468 µM and 0.493 µM | 1.95 µM and 2.59 µM |
| CN[C@H]1C=C[C@@H]2/C=C(C)/C=C/[C@@H](C)[C@H]([C@H](C)[C@H](O)[C@@H](C)NC(C)=O)OC(=O)/C=C/C=C(C)\C=C\[C@]2(C)C1 | > 49 µM | > 49 µM | > 49 µM | 10.3 µM | > 49 µM | 40.4 µM | > 49 µM | > 49 | > 49 µM | > 49 µM | < 0.001 µM and 0.0049 µM | 0.00994 µM | – | 16.6 µM | 0.00743 | < 0.001 µM and 0.0049 µM | – | 0.0146 µM | 5.5 µM | < 0.001 µM and 0.0049 µM |
| CC(C)CCC(=O)c1ccoc1 | > 100 µM | > 100 µM | > 100 µM | > 100 µM | > 100 µM | > 100 µM | > 100 µM | > 100 | > 100 µM | > 100 µM | – | – | – | – | – | – | – | – | – | – |
